Reference: patent US5663157A, “22-en-25-oxa derivatives in the vitamin D series, process for their production, pharmaceutical preparations containing these derivatives as well as their use as pharmaceutical agents” (Schering Aktiengesellschaft, priority 1992, dated 1997)

Columns and labels:
HL 60 cells = test: HL 60 differentiation induction (NBT reduction to formazan); type: cell-based; details: Homo sapiens, 96 hours incubation, formazan at 650 nm, read-out: ED50 (differentiation induction of HL 60 cells to macrophages)
Procedure: HL 60 cells are cultivated in tissue-culture medium (RPMI-10% fetal calf serum) at 37° C. in an atmosphere of 5% CO2 in air.
For substance testing, the cells are centrifuged off and 2.8 ×10^5 cells/ml in phenol red-free tissue-culture medium are taken up. The test substances are dissolved in ethanol and diluted with tissue-culture medium without phenol red to the desired concentration. The dilution stages are mixed with the cell suspension in a ratio of 1:10 and pipetted in 100 μl each of this cell suspension mixed with substance in an indentation of a 96-hole plate. For control, a cell suspension is analogously mixed with the solvent.
After incubation over 96 hours at 37° C. in 5% CO2 in air, 100 μl of an NBT-TPA solution (nitro blue tetrazolium (NBT), final concentration in the batch of 1 mg/ml, tetradecanoyl phorbol myristate-13-acetate (TPA), final concentration in the batch of 2 ×10^-7 mol/l) is pipetted in the cell suspension in every indentation of the 96-hole plate.
By incubation over 2 hours at 37° C. and 5% CO2 in air, NBT is reduced to insoluble formazan because of the intracellular oxygen radical release, stimulated by TPA, in the cells differentiated to macrophages.
For completion of the reaction, the indentations of the 96-hole plate are suctioned off, and the adhering cells are fixed by adding methanol and dried after fixing.
To dissolve the formed intracellular formazan crystals, 100 μl of potassium hydroxide (2 val/l) and 100 μl of dimethyl sulfoxide are pipetted in each indentation and ultrasonically treated for 1 minute. The concentration of formazan is measured by spectrophotometry at 650 nm.
The concentration of formed formazan is regarded as a measurement for the differentiation induction of the HL 60 cells to macrophages.

[1] = hypercalcemic and hypercalcinuric activity in vivo; set-up: species or system Wistar rats; details: for calcium excretion in urine, second collecting phase (16-22 hours): after oral calcium, solvent control 1.5 μmol/animal; for calcium excretion in urine, first collecting phase (0-16 hours): solvent control 12.2 μmol/animal; for calcium excretion in second collecting phase (16-22 hours), result in words: 200 μg/kg s.c. versus calcitriol 2 μg/kg and solvent control; for serum calcium concentration: 22 hours after administration, solvent control 3.0 mmol/l; for hypercalcemia induction: 200 μg/kg subcutaneous; for hypercalcemia induction / in vivo potency reduced by factor in comparison to calcitriol: male Wistar rats; for in vivo potency reduced by factor in comparison to calcitriol: calcium metabolism, subcutaneous
Procedure: To assess the corresponding activities of the substances according to the invention, the hypercalcemic and hypercalcinuric activity in vivo is determined. […] Urine is collected in the period of 0-16 hours after substance administration. Then, the animals orally receive 1 μmol of calcium in 6.5% klucel (hydroxypropyl cellulose) and again urine is collected for the period of 16-22 hours after substance administration. The urine volume of each fraction is measured to measure the absolute calcium excretion. After 22 hours, the animals are killed by decapitation and the blood is collected. The calcium concentration in serum and urine is determined by flame photometry.

SMILES | EC50 (HL 60 cells) [nM] | calcium excretion in urine, second collecting phase (16-22 hours) ([1]; calcitriol 2 μg/kg s.c.) [μmol/animal] | calcium excretion in urine, first collecting phase (0-16 hours) ([1]; calcitriol 2 μg/kg s.c.) [μmol/animal] | calcium excretion in second collecting phase (16-22 hours), result in words [1] | serum calcium concentration ([1]; 200 μg/kg s.c.) [mmol/L] | calcium excretion in urine, second collecting phase (16-22 hours) ([1]; 200 μg/kg s.c.) [μmol/animal] | calcium excretion in urine, first collecting phase (0-16 hours) ([1]; 200 μg/kg s.c.) [μmol/animal] | hypercalcemia induction [1] | in vivo potency reduced by factor in comparison to calcitriol [1]
C=C1/C(=C\C=C2/CCC[C@]3(C)[C@@H]([C@H](C)CCCC(C)(C)O)CC[C@@H]23)C[C@@H](O)C[C@@H]1O [calcitriol, 1α,25-Dihydroxycholecalciferol, reference compound] | 1.6 | 25.1 | 40.6 |  |  |  |  |  | 
C=C1/C(=C\C=C2/CCC[C@]3(C)[C@@H]([C@H](C)/C=C/COCC(C)(C)O)CC[C@@H]23)C[C@@H](O)C[C@@H]1O [compound 16, (5Z,7E,22E)-(1S,3R)-24-(2-Hydroxy-2-methylpropoxy)-9,10-secochola-5,7,10(19),22-tetraene-1,3-diol] | 3.2 |  |  | not increased relative to the solvent control | 3.0 | 3.6 | 62.4 | no hypercalcemia | > 100
C=C1/C(=C\C=C2/CCC[C@]3(C)[C@@H]([C@H](C)/C=C/COCC(O)(CC)CC)CC[C@@H]23)C[C@@H](O)C[C@@H]1O [compound 17, (5Z,7E,22E)-(1S,3R)-24-(2-Ethyl-2-hydroxybutoxy)-9,10-secochola-5,7,10(19),22-tetraene-1,3-diol] | 1 |  |  | not significantly different to the standard calcitriol | 3.4 | 47.0 | 61.7 | slight hypercalcemia | ~100
